Measurements: patent US4645769A, “1-oxa-1-dethia-cephalosporin compounds and antibacterial agent comprising the same” (Merck & Co., Inc., priority 1985, dated 1987)
Values after ≈ are worked out from the molar mass of the structure shown. Counter-ions that a name gives are not always drawn.

What was measured:
Format in all cases: cell-based
[1] = tested on: Pseudomonas aeruginosa MB-3833; experiment: Minimum Inhibitory Concentration (MIC), antibacterial spectrum in vitro; conditions: Pseudomonas aeruginosa MB-3833; for MIC: MB3833, read-out: Minimum Inhibitory Concentration (MIC)
[2] = tested on: Proteus morganii 1510; experiment: as above; conditions: Proteus morganii 1510; for MIC: Morganella morganii, read-out: Minimum Inhibitory Concentration (MIC)
[3] = tested on: Salmonella typhimurium LT-2; experiment: as above; conditions: Salmonella typhimurium LT-2; for MIC: Salmonella enterica, read-out: Minimum Inhibitory Concentration (MIC)
[4] = tested on: Staphylococcus aureus 209 P JC-1; experiment: as above; conditions: Staphylococcus aureus 209 P JC-1; for MIC: 209PJC1, read-out: Minimum Inhibitory Concentration (MIC)
[5] = tested on: Klebsiella pneumoniae PCI 602; experiment: as above; conditions: Klebsiella pneumoniae PCI 602; for MIC: PCI602, read-out: Minimum Inhibitory Concentration (MIC)
[6] = tested on: Esherichia coli NIHJ JC-2; experiment: as above
[7] = tested on: Citrobacter freundii GN-346; experiment: as above; conditions: Citrobacter freundii GN-346; for MIC: GN346, read-out: Minimum Inhibitory Concentration (MIC)
[8] = tested on: Streptococcus faecalis ATCC 8043; experiment: as above; conditions: Streptococcus faecalis ATCC 8043; for MIC: Enterococcus faecalis, ATCC8043, read-out: Minimum Inhibitory Concentration (MIC)
[9] = tested on: Pseudomonas aeruginosa E-2; experiment: as above; conditions: Pseudomonas aeruginosa E-2; for MIC: E2, read-out: Minimum Inhibitory Concentration (MIC)
[10] = tested on: Pseudomonas aeruginosa; experiment: Antibacterial activity against Pseudomonas aeruginosa (from Table 1); conditions: in words

SMILES	MIC [1]	MIC [2]	MIC [3]	MIC [4]	MIC [5]	MIC [6]	MIC [7]	MIC [8]	MIC [9]	effectiveness against Pseudomonas aeruginosa [10]	Minimum Inhibitory Concentration (MIC) [1]	Minimum Inhibitory Concentration (MIC) [2]	Minimum Inhibitory Concentration (MIC) [3]	Minimum Inhibitory Concentration (MIC) [4]	Minimum Inhibitory Concentration (MIC) [5]	Minimum Inhibitory Concentration (MIC) [6]	Minimum Inhibitory Concentration (MIC) [7]	Minimum Inhibitory Concentration (MIC) [8]	Minimum Inhibitory Concentration (MIC) [9]
CCN1CCN(C(=O)NC(C(=O)NC2C(=O)N3C(C(=O)[O-])=C(CSc4cc[n+](C)cc4)COC23)c2csc(N)n2)C(=O)C1=O (racemic) [Compound 20, (6R,7R)-7-(DL-2-(2-Aminothiazole-4-yl)-2-(4-ethyl-2,3-dioxopiperazine-1-ylcarboxamide)acetamide)-3-(1-methylpyridinium-4-ylthiomethyl)-1-oxa-1-dethiaceph-3-em-4-carboxylate (Sodium Salt)]	100 µg/mL	6.25 µg/mL	0.2 µg/mL	0.39 µg/mL	0.2 µg/mL	0.1 µg/mL	25 µg/mL	> 100 µg/mL	25 µg/mL										
CCN1CCN(C(=O)NC(C(=O)NC2C(=O)N3C(C(=O)[O-])=C(CSc4cc[n+](CC(=O)O)cc4)COC23)c2csc(N)n2)C(=O)C1=O (racemic) [Compound 21, (6R,7R)-7-(DL-2-(2-Aminothiazole-4-yl)-2-(4-ethyl-2,3-dioxopiperazine-1-ylcarboxamide)acetamide)-3-(1-carboxymethylpyridinium-4-yl-thiomethyl)-1-oxa-1-dethiaceph-3-em-4-carboxylate (Sodium Salt)]	> 100 µg/mL	12.5 µg/mL	0.1 µg/mL	1.56 µg/mL	0.05 µg/mL	0.05 µg/mL	> 100 µg/mL	50 µg/mL	> 100 µg/mL										
CC[n+]1ccc(SCC2=C(C(=O)[O-])N3C(=O)C(NC(=O)C(=NOC(C)(C)C(=O)O)c4csc(N)n4)C3OC2C)cc1 [Compound 2, (6R,7R)-7-((Z)-2-(2-Aminothiazole-4-yl)-2-(2-carboxyprop-2-oxyimino)acetamide)-(2S)-2-methyl-3-(1-ethyl-pyridinium-4-ylthiomethyl)-1-oxa-1-dethiaceph-3-em-4-carboxylate (Sodium Salt)]	3.13 µg/mL	0.1 µg/mL	< 0.025 µg/mL	0.78 µg/mL	0.2 µg/mL	0.2 µg/mL	0.78 µg/mL	50 µg/mL	3.13 µg/mL	effective against Pseudomonas aeruginosa									
CC1OC2C(NC(=O)C(=NOC(C)(C)C(=O)O)c3csc(N)n3)C(=O)N2C(C(=O)[O-])=C1CSc1cc[n+](CCF)cc1 [Compound 3, (6R,7R)-7-((Z)-2-(2-Aminothiazole-4-yl)-2-(2-carboxyprop-2-oxyimino)acetamide)-(2S)-2-methyl-3-(1-(2-fluoroethyl)pyridinium-4-ylthiomethyl)-1-oxa-1-dethiaceph-3-em-4-carboxylate (Sodium Salt)]	1.56 µg/mL	0.2 µg/mL	< 0.025 µg/mL	0.78 µg/mL	0.2 µg/mL	0.2 µg/mL	0.78 µg/mL	25 µg/mL	1.56 µg/mL	effective against Pseudomonas aeruginosa									
CC1OC2C(NC(=O)C(=NOC(C)(C)C(=O)O)c3csc(N)n3)C(=O)N2C(C(=O)[O-])=C1CSc1cc[n+](CC(F)(F)F)cc1 [Compound 4, (6R,7R)-7-((Z)-2-(2-Aminothiazole-4-yl)-2-(2-carboxyprop-2-oxyimino)acetamide)-(2S)-2-methyl-3-(1-(2,2,2-trifluoroethyl)pyridinium-4-ylthionethyl)-1-oxa-1-dethia-3-ceph-4-carboxylate (Sodium Salt)]	3.13 µg/mL	0.2 µg/mL	0.05 µg/mL	1.56 µg/mL	0.39 µg/mL	0.2 µg/mL	1.56 µg/mL	50 µg/mL	3.13 µg/mL	effective against Pseudomonas aeruginosa									
CC1OC2C(NC(=O)C(=NOC(C)(C)C(=O)O)c3csc(N)n3)C(=O)N2C(C(=O)[O-])=C1CSc1cc[n+](CC(=O)O)cc1 [Compound 5, (6R,7R)-7-((Z)-2-(2-Aminothiazole-4-yl)-2-(2-carboxyprop-2-oxyimino)acetamide)-(2S)-2-methyl-3-(1-carboxymethylpyridinium-4-ylthiomethyl-1-oxa-1-dethiaceph-3-em-4-carboxylate (Sodium Salt)]	3.13 µg/mL	1.56 µg/mL	0.1 µg/mL	12.5 µg/mL	0.39 µg/mL	0.39 µg/mL	3.13 µg/mL	50 µg/mL	6.25 µg/mL										
CC(C)(ON=C(C(=O)NC1C(=O)N2C(C(=O)[O-])=C(CSc3cc[n+](CCF)cc3)COC12)c1csc(N)n1)C(=O)O [Compound 15, (6R,7R)-7-((Z)-2-(2-Aminothiazole-4-yl)-2-2-carboxyprop-2-oxyimino)acetamide)-3-((2-fluoroethyl)pyridinium-4-ylthiomethyl)-1-oxa-1-dethiaceph-3-em-4-carboxylate]	3.13 µg/mL (≈ 5.14 µM)	6.25 µg/mL (≈ 10.3 µM)	0.5 µg/mL (≈ 0.822 µM)	6.25 µg/mL (≈ 10.3 µM)	0.1 µg/mL (≈ 0.164 µM)	0.1 µg/mL (≈ 0.164 µM)	50 µg/mL (≈ 82.2 µM)	50 µg/mL (≈ 82.2 µM)	3.13 µg/mL (≈ 5.14 µM)	effective against Pseudomonas aeruginosa									
CC1OC2C(NC(=O)C(=NOC(C)(C)C(=O)O)c3csc(N)n3)C(=O)N2C(C(=O)[O-])=C1CSc1cc[n+](C(CF)CF)cc1 [Compound 17, (6R,7R)-7-((Z)-2-(2-Aminothiazole-4-yl)-2-(2-carboxyprop-2-oxyimino)acetamide)-(2S)-2-methyl-3-(1-(1,3-difluoroprop-2-yl)-pyridinium-4-ylthiomethyl)-1-oxa-1-dethiaceph-3-em-4-carboxylate (Sodium Salt)]	1.56 µg/mL	0.2 µg/mL	< 0.025 µg/mL	0.78 µg/mL	0.05 µg/mL	0.025 µg/mL	1.56 µg/mL	25 µg/mL	1.56 µg/mL										
C[C@@H]1O[C@@H]2[C@@H](NC(=O)/C(=N\OCC(=O)[O-])c3csc(N)n3)C(=O)N2C(C(=O)[O-])=C1CSc1cc[n+](C)cc1.[Na+] [Compound 18, (6R,7R)-7-((Z)-2-(2-Aminothiazole-4-yl)-2-carboxymethoxyiminoacetamide)-(2S)-2-methyl-3-(1-methylpyridinium-4-ylthiomethyl)-1-oxa-1-dethiaceph-3-em-4-carboxylate (Sodium Salt)]											1.56 µg/mL	0.10 µg/mL	< 0.025 µg/mL	0.78 µg/mL	0.10 µg/mL	0.05 µg/mL	1.56 µg/mL	25 µg/mL	1.56 µg/mL
CC1OC2C(NC(=O)C(=NOCC(=O)O)c3csc(N)n3)C(=O)N2C(C(=O)[O-])=C1CSc1cc[n+](CCF)cc1 [Compound 19, (6R,7R)-7-((Z)-2-(2-Aminothiazole-4-yl)-2-carboxymethoxyiminoacetamide)-(2S)-2-methyl-3-(1-(2-fluoroethyl)pyridinium-4-ylthiomethyl)-1-oxa-1-dethiaceph-3-em-4-carboxylate (Sodium Salt)]	3.13 µg/mL	0.2 µg/mL	0.1 µg/mL	3.13 µg/mL	0.39 µg/mL	0.78 µg/mL	1.56 µg/mL	> 100 µg/mL	3.13 µg/mL										
